The values that follow come from patent US12441726B2, “Compounds and uses thereof” (Foghorn Therapeutics Inc., priority 2020, dated 2025).

In one test the target is BRG-1 (Homo sapiens, UniProt P51532). The experiment in a line: ATPase catalytic activity assay (ADP-Glo), BRG-1. To be noted: for Emax: 1 h, read-out: BRG1 Max % Inhibition, ADP-Glo, 30 nM BRG-1, 400 μM ATP. (ADP-Glo first removes unused ATP, then detects ADP through luciferase.)
The next test concerns the target BRM (Homo sapiens, UniProt P51531). The experiment in a line: ATPase catalytic activity assay (ADP-Glo), BRM. To be noted: 30 nM BRM, 400 μM ATP; for IC50: BRM ATPase: IC50 (uM).

The structures appear in SMILES notation.

Chain of BRM (P51531 whole entry): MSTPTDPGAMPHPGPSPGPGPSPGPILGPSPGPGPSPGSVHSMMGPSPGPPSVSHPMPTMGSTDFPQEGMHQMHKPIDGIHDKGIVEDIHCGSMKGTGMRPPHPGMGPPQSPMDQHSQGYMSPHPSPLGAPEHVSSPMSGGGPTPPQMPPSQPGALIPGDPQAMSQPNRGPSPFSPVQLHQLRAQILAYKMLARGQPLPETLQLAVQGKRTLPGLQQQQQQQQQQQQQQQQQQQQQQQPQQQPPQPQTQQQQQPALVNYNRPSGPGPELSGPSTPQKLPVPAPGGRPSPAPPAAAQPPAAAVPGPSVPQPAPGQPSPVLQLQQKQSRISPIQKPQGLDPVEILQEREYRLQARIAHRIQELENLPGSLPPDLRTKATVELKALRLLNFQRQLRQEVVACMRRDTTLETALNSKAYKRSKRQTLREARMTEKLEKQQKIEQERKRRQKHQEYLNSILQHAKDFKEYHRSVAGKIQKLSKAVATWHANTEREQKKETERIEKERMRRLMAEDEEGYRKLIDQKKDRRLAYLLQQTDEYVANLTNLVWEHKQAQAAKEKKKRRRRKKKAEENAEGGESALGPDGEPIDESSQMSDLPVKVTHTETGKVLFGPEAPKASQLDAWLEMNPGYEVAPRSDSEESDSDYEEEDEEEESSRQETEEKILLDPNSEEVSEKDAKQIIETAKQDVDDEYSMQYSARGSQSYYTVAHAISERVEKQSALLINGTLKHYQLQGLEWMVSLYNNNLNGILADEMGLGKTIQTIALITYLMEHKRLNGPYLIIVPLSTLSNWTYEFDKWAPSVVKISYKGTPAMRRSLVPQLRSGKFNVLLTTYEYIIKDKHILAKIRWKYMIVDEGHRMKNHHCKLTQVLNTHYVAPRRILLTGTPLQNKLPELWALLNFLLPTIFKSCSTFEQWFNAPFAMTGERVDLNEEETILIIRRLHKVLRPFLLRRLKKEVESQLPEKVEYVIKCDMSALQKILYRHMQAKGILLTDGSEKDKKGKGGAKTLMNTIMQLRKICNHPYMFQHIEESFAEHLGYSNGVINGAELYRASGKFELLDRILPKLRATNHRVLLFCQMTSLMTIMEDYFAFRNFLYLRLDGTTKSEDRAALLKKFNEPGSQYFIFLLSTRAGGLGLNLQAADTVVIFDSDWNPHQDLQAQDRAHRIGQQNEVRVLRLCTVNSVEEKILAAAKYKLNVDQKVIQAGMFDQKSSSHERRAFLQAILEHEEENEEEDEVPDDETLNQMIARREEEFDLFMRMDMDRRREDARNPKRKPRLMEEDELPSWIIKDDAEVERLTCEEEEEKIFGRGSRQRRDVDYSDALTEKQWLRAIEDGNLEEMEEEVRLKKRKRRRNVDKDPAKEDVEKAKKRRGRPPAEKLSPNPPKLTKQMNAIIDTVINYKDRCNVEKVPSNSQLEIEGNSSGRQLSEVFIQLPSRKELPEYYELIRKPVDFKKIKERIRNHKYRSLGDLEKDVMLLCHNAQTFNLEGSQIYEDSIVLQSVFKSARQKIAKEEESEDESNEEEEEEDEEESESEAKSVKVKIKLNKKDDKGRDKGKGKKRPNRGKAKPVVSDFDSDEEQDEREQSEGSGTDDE
Chain of BRG-1 (P51532 whole entry): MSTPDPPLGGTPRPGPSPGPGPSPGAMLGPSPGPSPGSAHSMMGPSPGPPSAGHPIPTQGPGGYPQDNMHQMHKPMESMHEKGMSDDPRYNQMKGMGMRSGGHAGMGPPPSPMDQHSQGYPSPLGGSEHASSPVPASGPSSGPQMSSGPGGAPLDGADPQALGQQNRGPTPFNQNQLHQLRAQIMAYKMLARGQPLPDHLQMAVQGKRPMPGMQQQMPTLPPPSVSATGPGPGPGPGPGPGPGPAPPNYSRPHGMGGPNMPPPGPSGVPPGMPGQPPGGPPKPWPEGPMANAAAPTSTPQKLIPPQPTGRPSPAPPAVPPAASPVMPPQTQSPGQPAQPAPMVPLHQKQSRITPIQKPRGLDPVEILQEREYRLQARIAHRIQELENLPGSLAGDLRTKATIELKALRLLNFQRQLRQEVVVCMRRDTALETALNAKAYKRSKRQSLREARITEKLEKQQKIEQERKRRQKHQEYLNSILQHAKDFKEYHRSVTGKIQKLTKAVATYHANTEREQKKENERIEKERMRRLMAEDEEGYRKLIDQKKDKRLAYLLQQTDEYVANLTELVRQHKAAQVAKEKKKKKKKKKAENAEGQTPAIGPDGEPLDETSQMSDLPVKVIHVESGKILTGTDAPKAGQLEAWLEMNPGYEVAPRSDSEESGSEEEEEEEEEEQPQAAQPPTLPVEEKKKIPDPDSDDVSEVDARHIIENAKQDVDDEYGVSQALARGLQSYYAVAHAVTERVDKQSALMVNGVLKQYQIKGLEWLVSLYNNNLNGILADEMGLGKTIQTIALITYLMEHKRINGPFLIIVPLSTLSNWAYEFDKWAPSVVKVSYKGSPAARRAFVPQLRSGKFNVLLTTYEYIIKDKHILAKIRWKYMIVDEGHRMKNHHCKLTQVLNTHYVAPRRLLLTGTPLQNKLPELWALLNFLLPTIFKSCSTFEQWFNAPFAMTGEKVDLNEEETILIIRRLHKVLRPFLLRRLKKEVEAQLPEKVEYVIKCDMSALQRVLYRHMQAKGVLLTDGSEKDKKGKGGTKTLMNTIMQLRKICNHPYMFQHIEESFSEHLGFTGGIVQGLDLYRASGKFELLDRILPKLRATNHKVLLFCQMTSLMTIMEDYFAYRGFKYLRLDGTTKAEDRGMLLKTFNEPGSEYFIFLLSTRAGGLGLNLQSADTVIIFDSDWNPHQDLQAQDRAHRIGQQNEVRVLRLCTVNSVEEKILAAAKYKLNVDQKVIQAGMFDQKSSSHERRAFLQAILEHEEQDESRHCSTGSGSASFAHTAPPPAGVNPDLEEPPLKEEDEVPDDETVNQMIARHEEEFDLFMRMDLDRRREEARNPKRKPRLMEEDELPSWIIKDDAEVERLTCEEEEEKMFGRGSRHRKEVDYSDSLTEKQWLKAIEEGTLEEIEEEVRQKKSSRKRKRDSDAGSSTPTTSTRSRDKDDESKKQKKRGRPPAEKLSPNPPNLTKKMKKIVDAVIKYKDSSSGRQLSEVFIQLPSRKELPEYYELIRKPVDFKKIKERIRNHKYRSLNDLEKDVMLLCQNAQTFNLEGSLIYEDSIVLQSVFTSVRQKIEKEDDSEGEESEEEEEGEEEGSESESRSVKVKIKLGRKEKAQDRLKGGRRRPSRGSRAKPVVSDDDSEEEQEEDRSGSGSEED

As for `C[C@@]1(C#N)COCc2ccc(C(=O)NCc3cc4cc(-c5ccccc5)ccc4nn3)cc21` [Compound 494], on BRG-1, the IC50 is 0.1 to 0.5 µM and the Emax amounted to 90%. On BRM, the “BRM Max % Inhibition” value is given as 99% and the IC50 is less than 0.1 µM.

Regarding `CN1Cc2cc(-c3ccc4cnc(CNC(=O)c5ccc6c(c5)[C@](C)(C#N)COC6)cc4n3)ccc2C1=O` [Compound 495], on BRG-1, the IC50 fell in the range of 0.1 to 0.5 µM and the Emax was found to be 88%. At BRM, the “BRM Max % Inhibition” value stood at 99% and the IC50 is less than 0.1 µM.

As for `C[C@@]1(C#N)COCc2ccc(C(=O)NCc3cc4nc(-c5cccc(N6CCC6)n5)ccc4cn3)cc21` [Compound 496], at BRG-1, the IC50 is less than 0.1 µM and the Emax came out at 92%. For the same compound, at BRM, the “BRM Max % Inhibition” value worked out at 100% and the IC50 is less than 0.1 µM.

Take `C[C@@]1(C#N)COCc2ccc(C(=O)NCc3cc4nc(-c5cncc(N6CCC6)n5)ccc4cn3)cc21` [Compound 497]: at BRG-1, the concentration for half-maximal inhibition (IC50) was less than 0.1 µM and the Emax is 97%. Further, at BRM, the “BRM Max % Inhibition” value amounted to 100% and the IC50 was less than 0.1 µM.

With `CN1C(=O)Cc2cc(-c3ccc4cnc(CNC(=O)c5ccc6c(c5)[C@](C)(C#N)COC6)cc4n3)ccc21` [Compound 498], on BRG-1, the half-maximal inhibitory concentration (IC50) was in the range of 0.1 to 0.5 µM and the Emax came to 83%. For the same compound, on BRM, the “BRM Max % Inhibition” value is recorded as 98% and the IC50 was 0.1 to 0.5 µM.

Take `C[C@@]1(C#N)COCc2ccc(C(=O)NCc3cc4nc(-c5cnn(-c6cccnc6)c5)ccc4cn3)cc21` [Compound 499]: on BRG-1, the IC50 is greater than 1 µM and the Emax was 29%. For the same compound, at BRM, the “BRM Max % Inhibition” value stood at 85% and the IC50 was in the range of 0.1 to 0.5 µM.

As to `C[C@@]1(C#N)COCc2ncc(C(=O)NCc3cc4nc(-c5cccc(C(F)F)c5)ccc4cn3)cc21` [Compound 500], on BRG-1, the IC50 lay within 0.5 to 1 µM and the Emax was found to be 83%. Further, on BRM, the “BRM Max % Inhibition” value is given as 95% and the IC50 is less than 0.1 µM.

On to `Cc1cc(-c2ccc3cnc(CNC(=O)c4ccc5c(c4)[C@](C)(C#N)COC5)cc3n2)n(C)n1` [Compound 501], for which, on BRG-1, the half-inhibitory concentration (IC50) was greater than 1 µM and the Emax is 47%. For the same compound, at BRM, the “BRM Max % Inhibition” value is reported as 85% and the IC50 was 0.1 to 0.5 µM.

As to `CCOC(=O)C12CCC(CC1)N(c1ccc3cnc(CNC(=O)c4ccc5c(c4)[C@](C)(C#N)COC5)cc3n1)C2` [Compound 502], at BRG-1, the half-maximal inhibitory concentration (IC50) fell in the range of 0.5 to 1 µM and the Emax came to 70%. At BRM, the “BRM Max % Inhibition” value was 89% and the IC50 was 0.1 to 0.5 µM.

`Cc1ccn(-c2ccc3cnc(CNC(=O)c4ccc5c(c4)[C@](C)(C#N)COC5)cc3n2)n1` [Compound 503]: at BRG-1, the IC50 is greater than 1 µM and the Emax was 72%. Further, on BRM, the “BRM Max % Inhibition” value was found to be 94% and the 50% inhibitory concentration (IC50) was in the range of 0.1 to 0.5 µM.

With `C[C@@]1(C#N)COCc2ccc(C(=O)NCc3cc4nc(-c5cnn(C(F)F)c5)ccc4cn3)cc21` [Compound 504], at BRG-1, the IC50 is greater than 1 µM and the Emax came to 44%. For the same compound, at BRM, the “BRM Max % Inhibition” value is 84% and the IC50 was 0.1 to 0.5 µM.

In the case of `Cc1cnn(-c2ccc3cnc(CNC(=O)c4ccc5c(c4)[C@](C)(C#N)COC5)cc3n2)c1` [Compound 505], on BRG-1, the IC50 lay within 0.5 to 1 µM and the Emax was 72%. On BRM, the “BRM Max % Inhibition” value is recorded as 96% and the IC50 was 0.1 to 0.5 µM.

Turning to `C[C@@]1(C#N)COCc2ccc(C(=O)NCc3cc4nc(-c5ccnc(N6CCC6)n5)ccc4cn3)cc21` [Compound 506], on BRG-1, the IC50 lay in the range of 0.1 to 0.5 µM and the Emax came to 96%. On BRM, the “BRM Max % Inhibition” value stood at 97% and the IC50 was less than 0.1 µM.

On to `COc1cnccc1-c1ccc2cnc(CNC(=O)c3ccc4c(c3)[C@](C)(C#N)COC4)cc2n1` [Compound 507], for which, on BRG-1, the half-maximal inhibitory concentration (IC50) was in the range of 0.1 to 0.5 µM and the Emax amounted to 77%. For the same compound, on BRM, the “BRM Max % Inhibition” value was found to be 97% and the IC50 is less than 0.1 µM.

Consider `C[C@@]1(C#N)COCc2ccc(C(=O)NCc3cc4cc(-c5ccccc5)ncc4cn3)cc21` [Compound 508], for which, at BRG-1, the IC50 was greater than 1 µM and the Emax worked out at 46%. At BRM, the “BRM Max % Inhibition” value is 90% and the half-inhibitory concentration (IC50) lay within 0.1 to 0.5 µM.

Take `Cc1nn(C)cc1-c1ccc2cnc(CNC(=O)c3ccc4c(c3)[C@](C)(C#N)COC4)cc2n1` [Compound 509]: at BRG-1, the IC50 was in the range of 0.5 to 1 µM and the Emax was 54%. Moreover, at BRM, the “BRM Max % Inhibition” value is recorded as 93% and the IC50 is 0.1 to 0.5 µM.

As for `Cn1cccc(-c2ccc3cnc(CNC(=O)c4ccc5c(c4)[C@](C)(C#N)COC5)cc3n2)c1=O` [Compound 510], at BRG-1, the IC50 is greater than 1 µM and the Emax amounted to 64%. Also, at BRM, the “BRM Max % Inhibition” value is on record as 89% and the IC50 lay in the range of 0.1 to 0.5 µM.

For `C[C@@]1(C#N)COCc2ccc(C(=O)NCc3cc4cc(-c5ccccc5)cnc4cn3)cc21` [Compound 511], on BRG-1, the IC50 was in the range of 0.5 to 1 µM and the Emax is 79%. Moreover, on BRM, the “BRM Max % Inhibition” value amounted to 96% and the IC50 is less than 0.1 µM.

For `COc1cc(-c2ccc3cnc(CNC(=O)c4ccc5c(c4)[C@](C)(C#N)COC5)cc3n2)ccn1` [Compound 512], at BRG-1, the concentration for half-maximal inhibition (IC50) is 0.5 to 1 µM and the Emax worked out at 80%. Further, at BRM, the “BRM Max % Inhibition” value was 97% and the IC50 was less than 0.1 µM.

For `C[C@@]1(C#N)COCc2ccc(C(=O)NCc3cc4nc(-c5cnn(C6COC6)c5)ccc4cn3)cc21` [Compound 513], on BRG-1, the IC50 was greater than 1 µM and the Emax turned out to be 36%. For the same compound, on BRM, the “BRM Max % Inhibition” value was 87% and the concentration for half-maximal inhibition (IC50) was 0.1 to 0.5 µM.

Turning to `C[C@@]1(C#N)COCc2ccc(C(=O)NCc3cc4nc(N5CCCC5)ccc4cn3)cc21` [Compound 514], at BRG-1, the IC50 was greater than 1 µM and the Emax stood at 59%. Further, at BRM, the “BRM Max % Inhibition” value is listed as 95% and the IC50 lay within 0.1 to 0.5 µM.

In the case of `COc1c(F)cc(F)cc1-c1ccc2cnc(CNC(=O)c3ccc4c(c3)[C@](C)(C#N)COC4)cc2n1` [Compound 515], at BRG-1, the IC50 lay in the range of 0.5 to 1 µM and the Emax is 68%. Besides, at BRM, the “BRM Max % Inhibition” value amounted to 90% and the IC50 was 0.1 to 0.5 µM.

In the case of `COc1c(F)cccc1-c1ccc2cnc(CNC(=O)c3ccc4c(c3)[C@](C)(C#N)COC4)cc2n1` [Compound 516], on BRG-1, the IC50 lay in the range of 0.5 to 1 µM and the Emax was found to be 77%. For the same compound, on BRM, the “BRM Max % Inhibition” value came to 96% and the IC50 was 0.1 to 0.5 µM.

On to `COc1ccc(F)cc1-c1ccc2cnc(CNC(=O)c3ccc4c(c3)[C@](C)(C#N)COC4)cc2n1` [Compound 517], for which, on BRG-1, the IC50 was 0.1 to 0.5 µM and the Emax was 88%. At BRM, the “BRM Max % Inhibition” value is recorded as 98% and the IC50 is less than 0.1 µM.

As for `C[C@@]1(C#N)COCc2ccc(C(=O)NCc3cc4nc(-c5cc(F)cc(F)c5)ccc4cn3)cc21` [Compound 518], at BRG-1, the 50% inhibitory concentration (IC50) is 0.5 to 1 µM and the Emax came to 72%. On BRM, the “BRM Max % Inhibition” value worked out at 96% and the IC50 was 0.1 to 0.5 µM.

Regarding `C[C@@]1(C#N)COCc2ccc(C(=O)NCc3cc4nc(-c5ccc(C(F)F)cc5)ccc4cn3)cc21` [Compound 519], on BRG-1, the IC50 lay in the range of 0.1 to 0.5 µM and the Emax stood at 90%. Further, at BRM, the “BRM Max % Inhibition” value was 96% and the IC50 is less than 0.1 µM.

As to `C[C@@]1(C#N)COCc2ccc(C(=O)NCc3cc4nc(-c5cnccn5)ccc4cn3)cc21` [Compound 520], on BRG-1, the IC50 is 0.5 to 1 µM and the Emax worked out at 53%. Further, on BRM, the “BRM Max % Inhibition” value was found to be 88% and the IC50 is 0.1 to 0.5 µM.

On to `C[C@@]1(C#N)COCc2ccc(C(=O)NCc3cc4nc(-c5ccccc5C(F)F)ccc4cn3)cc21` [Compound 521], for which, at BRG-1, the IC50 was greater than 1 µM and the Emax came to 34%. Besides, at BRM, the “BRM Max % Inhibition” value stood at 85% and the IC50 was 0.1 to 0.5 µM.

With `C[C@@]1(C#N)COCc2ccc(C(=O)NCc3ncc4ccc(-c5ccccc5)cc4n3)cc21` [Compound 522], at BRG-1, the IC50 lay within 0.5 to 1 µM and the Emax was found to be 83%. For the same compound, on BRM, the “BRM Max % Inhibition” value turned out to be 97% and the IC50 was in the range of 0.1 to 0.5 µM.

For `COC(=O)N1CCC2CC2(c2ccc3cnc(CNC(=O)c4ccc5c(c4)[C@](C)(C#N)COC5)cc3n2)C1` (stereo partly drawn) [Compound 523], at BRG-1, the IC50 lay in the range of 0.5 to 1 µM and the Emax came out at 58%. For the same compound, at BRM, the “BRM Max % Inhibition” value is 90% and the IC50 was in the range of 0.1 to 0.5 µM.

For `C[C@@]1(C#N)COCc2ccc(C(=O)NCc3cc4nn(-c5ccccc5)cc4cn3)cc21` [Compound 524], at BRG-1, the IC50 is greater than 1 µM and the Emax was 50%. Also, on BRM, the “BRM Max % Inhibition” value was 95% and the IC50 lay in the range of 0.1 to 0.5 µM.

Take `O=C(NCc1cc2nc(-c3ccccc3)ccc2cn1)c1ccc2c(c1)[C@@](F)(C(F)F)COC2` [Compound 525]: at BRG-1, the IC50 was 0.5 to 1 µM and the Emax is 69%. For the same compound, on BRM, the “BRM Max % Inhibition” value was found to be 97% and the IC50 is 0.1 to 0.5 µM.

With `C[C@@H]1CN(c2cccc(-c3ccc4[nH]c(CNC(=O)c5ccc6c(c5)[C@](C)(CO)CC6)nc4c3)c2)C[C@H](C)O1` [Compound 526], on BRG-1, the IC50 was 0.5 to 1 µM and the Emax was determined as 61.2%. In addition, at BRM, the “BRM Max % Inhibition” value came out at 90.7% and the IC50 is 0.1 to 0.5 µM.

Usually IC50 stands for the concentration needed to halve the response being measured.
